Test results as given in patent US4808572A, “α-Hydroxy thioethers” (Ciba-Geigy Corporation, priority 1985, dated 1989).

Experiments:
[1] = biological target: phospholipase C from human thrombocytes; assay: In vitro inhibition of phospholipase C obtained from human thrombocytes; type: biochemical; settings: enzyme from human thrombocytes, phosphatidyl-[14C]-inositol, 37°, 5 minutes, pH 6
Experimental: Human thrombocytes are obtained from "buffy coats" by fractional centrifugation and then deep frozen.
To ascertain the enzyme activity, enzyme (20-100 μg protein) is incubated at 37° for 5 minutes in 0.025M tris/malate buffer pH 6 with the addition of 0.2 mM CaCl2 and 0.02 mM radioactively labelled substrate, phosphatidyl-[^14 C]-inositol. The reaction is stopped by extraction by shaking with CHCl3 /CH3 OH 2:1 (v/v). In the course of this operation unconsumed substrate is extracted into the organic phase, whilst the reaction product, ^14 C-inositol phosphate, remains in the aqueous phase and can be measured by radiometry of an aliquot.
In order to ascertain the inhibitory action of test substances on phospholipase C, these substances are added in the form of solutions in water, dimethyl sulphoxide (final concentration in the mixture up to 5%, v/v) or ethanol (final concentration in the mixture up to 2.5%, v/v) to the incubation mixture. The strength of action of the test substances is expressed by the IC50, that is to say the concentration that causes a 50% inhibition of the control activity. The IC50 is ascertained on a graph by plotting the percentage inhibition on the ordinate against the log of the concentration (μM) on the abscissa.

[2] = biological target: phospholipase A2 from human leucocytes; assay: In vitro inhibition of phospholipase A2 obtained from human leucocytes; type: biochemical; settings: enzyme from human neutrophilic polymorphonuclear leucocytes, 14C-oleic acid labelled E. coli phospholipids, 37°, 1 hour, pH 7
Experimental: Human neutrophilic polymorphonuclear leucocytes are isolated from "buffy coats" by multistage fractional sedimentation and are deep-frozen. Phospholipase A2 is extracted from the cell suspension by homogenisation with the addition of ice-cold 0.36N H2 SO4 in 2N NaCl, and the supernatant obtained after centrifugation at 10,000×g is dialysed against sodium acetate buffer pH 4.5.
In order to determine the enzyme activity, enzyme (10-30 μg protein) is incubated at 37° for 1 hour in 0.1M tris/HCl buffer pH 7 with the addition of 1 mM CaCl2 and substrate consisting of phospholipids (2 μM) of Escherichia coli that have been radioactively labelled with ^14 C-oleic acid by means of biosynthesis. The reaction is stopped by the addition of Dole reagent (isopropanol/heptane/1N H2 SO4 40:10:1, v/v) and the ^14 C-oleic acid selectively released by phospholipase A2 is extracted. Substrate also extracted at the same time is completely removed by filtering the extract through a column of silica gel. The ^14 C-oleic acid in the eluate is determined by radiometry.
In order to ascertain the inhibitory action of test substances on phospholipase A2, these substances are added in the form of solutions in water, dimethyl sulphoxide (final concentration in the mixture up to 5% v/v) or ethanol (final concentration in the mixture up to 2.5% v/v) to the incubation mixture. […]

`CCN(CC)CCCC(C)Nc1c2ccc(Cl)cc2nc2ccc(OC)cc12` (centres unmarked) [mepacrine] gave an IC50 [1] of 20 µM and an IC50 [2] of 1600 µM.
